Values of other authors, collected in patent US20060057204A1, “Pharmaceutical compositions containing venlafaxine” (priority 2002, published 2006).
Structures can show the parent of a compound that is named as a salt.

Conditions: plural daily dosing regimen

nausea, patients under treatment: about forty five percent
vomiting, patients: about seventeen percent
Structure (SMILES): COc1ccc(C(CN(C)C)C2(O)CCCCC2)cc1 (centres unmarked) [venlafaxine hydrochloride, 1-[(2-dimethylamino)-1-(4-methoxyphenyl)ethyl] cyclohexanol]
